Test results published in ChEMBL document CHEMBL1151183, “New pigments from the terrestrial cyanobacterium Scytonema sp. collected on the Mitaraka inselberg, French Guyana” (J Nat Prod, 2004).
Calls of active or inactive are those of the source.

Legend:
Staphylococcus aureus = experiment: Antimicrobial activity against Staphylococcus aureus ATCC 6538 at 1 uM; type: functional, organism-based
Escherichia coli = experiment: Antimicrobial activity against Escherichia coli ATCC 8739 at 1 uM; type: functional, organism-based
Candida tropicalis = experiment: Antimicrobial activity against Candida tropicalis IP 209.73 at 1 uM; type: functional, organism-based
KB = experiment: Cytotoxicity against human KB cells at 0.1 uM; type: functional, cell-based

Measured: Activity

COC(c1ccc(O)cc1)C1(OC)C(=O)/C(=C2/C(=O)C(OC)(C(OC)c3ccc(O)cc3)c3[nH]c4ccccc4c32)c2c1[nH]c1ccccc21 (configuration not stated)
inactive: Staphylococcus aureus | Escherichia coli | Candida tropicalis | KB Not toxic

COC(c1ccc(O)cc1)C1(OC)C(=O)/C(=C2/C(=O)/C(=C/c3ccc(O)cc3)c3[nH]c4ccccc4c32)c2c1[nH]c1ccccc21 (configuration not stated)
inactive: Staphylococcus aureus | Escherichia coli | Candida tropicalis | KB Not toxic

COC(=O)C1=C(c2c(/C(=C\c3ccc(O)cc3)C(=O)OC)[nH]c3ccccc23)C(=O)c2[nH]c3ccccc3c21
inactive: Staphylococcus aureus | Escherichia coli | Candida tropicalis | KB Not toxic
